The first test addresses KHK-C (Homo sapiens (Human), UniProt P50053). Briefly: Assay A: coupled-enzyme KHK absorbance assay, 10 nM KHK-C.
Conditions: not given
KHK-C, sequence (P50053 whole entry): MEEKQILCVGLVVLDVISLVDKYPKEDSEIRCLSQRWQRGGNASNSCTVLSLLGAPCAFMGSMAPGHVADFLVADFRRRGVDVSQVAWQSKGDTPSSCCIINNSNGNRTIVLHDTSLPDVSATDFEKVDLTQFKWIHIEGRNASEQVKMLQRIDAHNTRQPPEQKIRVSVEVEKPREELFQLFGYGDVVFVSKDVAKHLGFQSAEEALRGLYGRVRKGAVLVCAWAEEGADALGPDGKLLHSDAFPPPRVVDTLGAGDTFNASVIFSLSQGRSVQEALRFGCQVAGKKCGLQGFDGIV
In the case of `COC(=O)C[C@@H]1[C@H]2CN(c3cc(C(F)(F)F)nc(N4CC[C@@H]4C)n3)C[C@@H]12` [Example 3, Methyl [(1R,5S,6R)-3-{2-[(2S)-2-methylazetidin-1-yl]-6-(trifluoromethyl)pyrimidin-4-yl}-3-azabicyclo[3.1.0]hex-6-yl]acetate], the IC50 (usually the point on the concentration scale where inhibition reaches its midpoint) is 3510 nM. Turning to `C[C@@H]1N(c2nc(N3C[C@@H]4[C@H](C3)[C@H]4CS(C)(=O)=O)cc(C(F)(F)F)n2)C[C@@]1(C)O` [Example 9, (2S,3R)-2,3-dimethyl-1-[4-{(1R,5S,6s)-6-[(methylsulfonyl)methyl]-3-azabicyclo[3.1.0]hex-3-yl}-6-(trifluoromethyl)pyrimidin-2-yl]azetidin-3-ol], inhibition was half-maximal at 14400 nM (IC50).

Staying with this test, now noted: read-out: IC50 (nM) Assay A 10 nM KHK-C; 10 nM KHK-C, 0.8 mM fructose, 0.2 mM ATP; avg of (#) runs.
Take `O=C(O)C[C@@H]1[C@H]2CN(c3cc(C(F)(F)F)nc(C4CCC4)n3)C[C@@H]12` [Example 6, {(1R,5S,6s)-3-[2-cyclobutyl-6-(trifluoromethyl)pyrimidin-4-yl]-3-azabicyclo[3.1.0]hex-6-yl}acetic acid]: the IC50 amounted to 170 nM. Take `C[C@H]1[C@H](O)CN1c1nc(N2C[C@@H]3[C@@H](CC(=O)O)[C@@H]3C2)c(C2CC2)c(C(F)(F)F)n1` [Example 7, [(1R,5S,6R)-3-{5-cyclopropyl-2-[(2S,3R)-3-hydroxy-2-methylazetidin-1-yl]-6-(trifluoromethyl)pyrimidin-4-yl}-3-azabicyclo[3.1.0]hex-6-yl]acetic acid]: the IC50 came to 111 nM. On the same count and under the same terms, with `CCc1c(N2C[C@@H]3[C@@H](CC(=O)O)[C@@H]3C2)nc(N2C[C@@H](O)[C@@H]2C)nc1C(F)(F)F` [Example 8, [(1R,5S,6R)-3-{5-ethyl-2-[(2S,3R)-3-hydroxy-2-methylazetidin-1-yl]-6-(trifluoromethyl)pyrimidin-4-yl}-3-azabicyclo[3.1.0]hex-6-yl]acetic acid] the figure was 53.8 nM; with `C[C@H]1CCN1c1nc(N2C[C@@H]3[C@@H](CC(=O)NS(C)(=O)=O)[C@@H]3C2)cc(C(F)(F)F)n1` [Example 10, 2-[(1R,5S,6R)-3-{2-[(2S)-2-methylazetidin-1-yl]-6-(trifluoromethyl)pyrimidin-4-yl}-3-azabicyclo[3.1.0]hex-6-yl]-N-(methylsulfonyl)acetamide], 682 nM; with `C[C@H]1CCN1c1nc(N2C[C@@H]3[C@@H](Cc4nnn[nH]4)[C@@H]3C2)cc(C(F)(F)F)n1` [Example 11, (1R,5S,6R)-3-{2-[(2S)-2-methylazetidin-1-yl]-6-(trifluoromethyl)pyrimidin-4-yl}-6-(1H-tetrazol-5-ylmethyl)-3-azabicyclo[3.1.0]hexane], 866 nM. Regarding `C[C@H]1[C@H](O)CN1c1cc(N2C[C@@H]3[C@@H](CC(=O)O)[C@@H]3C2)c(Cl)c(C(C)(F)F)n1` [Example 12, [(1R,5S,6R)-3-{3-chloro-2-(1,1-difluoroethyl)-6-[(2S,3R)-3-hydroxy-2-methylazetidin-1-yl]pyridin-4-yl}-3-azabicyclo[3.1.0]hex-6-yl]acetic acid], the IC50 was determined as 289 nM. Take `COc1c(N2C[C@@H]3[C@@H](CC(=O)O)[C@@H]3C2)nc(N2C[C@@H](O)[C@@H]2C)nc1C(F)(F)F` [Example 13, [(1R,5S,6R)-3-{2-[(2S,3R)-3-hydroxy-2-methylazetidin-1-yl]-5-methoxy-6-(trifluoromethyl)pyrimidin-4-yl}-3-azabicyclo[3.1.0]hex-6-yl]acetic acid]: the IC50 was determined as 33.9 nM.

The same test, now with this note: read-out: IC50 (nM) Assay A (Table 4); 10 nM KHK-C, 0.8 mM fructose, 0.2 mM ATP; avg of (#) runs.
With `C[C@H]1[C@H](O)CN1c1nc(C(F)F)cc(N2C[C@@H]3[C@@H](CC(=O)O)[C@@H]3C2)n1` [Example 14, [(1R,5S,6R)-3-{6-(difluoromethyl)-2-[(2S,3R)-3-hydroxy-2-methylazetidin-1-yl]pyrimidin-4-yl}-3-azabicyclo[3.1.0]hex-6-yl]acetic acid], the IC50 came to 152 nM. As for `C[C@H]1[C@H](O)CN1c1nc(C(F)F)c(Cl)c(N2C[C@@H]3[C@@H](CC(=O)O)[C@@H]3C2)n1` [Example 15, [(1R,5S,6R)-3-{5-chloro-6-(difluoromethyl)-2-[(2S,3R)-3-hydroxy-2-methylazetidin-1-yl]pyrimidin-4-yl}-3-azabicyclo[3.1.0]hex-6-yl]acetic acid], the IC50 was 19.1 nM. Consider `C[C@H]1[C@H](O)CN1c1nc(N2C[C@@H]3[C@@H](CC(=O)O)[C@@H]3C2)c(Cl)c(C(F)(F)F)n1` [Example 16, [(1R,5S,6R)-3-{5-chloro-2-[(2S,3R)-3-hydroxy-2-methylazetidin-1-yl]-6-(trifluoromethyl)pyrimidin-4-yl}-3-azabicyclo[3.1.0]hex-6-yl]acetic acid], for which the IC50 was 6.4 nM. `C[C@H]1[C@H](O)CN1c1nc(N2C[C@@H]3[C@@H](CC(=O)O)[C@@H]3C2)cc(C(C)(F)F)n1` [Example 17, [(1R,5S,6R)-3-{6-(1,1-difluoroethyl)-2-[(2S,3R)-3-hydroxy-2-methylazetidin-1-yl]pyrimidin-4-yl}-3-azabicyclo[3.1.0]hex-6-yl]acetic acid]: the IC50 amounted to 131 nM.

Take `C[C@H]1[C@H](O)CN1c1nc(N2C[C@@H]3[C@@H](CC(=O)O)[C@@H]3C2)c(Cl)c(C(C)(F)F)n1` [Example 18, [(1R,5S,6R)-3-{5-chloro-6-(1,1-difluoroethyl)-2-[(2S,3R)-3-hydroxy-2-methylazetidin-1-yl]pyrimidin-4-yl}-3-azabicyclo[3.1.0]hex-6-yl]acetic acid]: the IC50 is 16.7 nM. Take `C[C@H]1CCN1c1nc(N2C[C@@H]3[C@@H](CC(=O)O)[C@@H]3C2)cc(C(F)F)c1C#N` [Example 19, [(1R,5S,6R)-3-{5-cyano-4-(difluoromethyl)-6-[(2S)-2-methylazetidin-1-yl]pyridin-2-yl}-3-azabicyclo[3.1.0]hex-6-yl]acetic acid]: the IC50 stood at 7.2 nM. Turning to `Cc1c(C(F)F)nc(N2C[C@@H](O)[C@@H]2C)nc1N1C[C@@H]2[C@@H](CC(=O)O)[C@@H]2C1` [Example 20, [(1R,5S,6R)-3-{6-(difluoromethyl)-2-[(2S,3R)-3-hydroxy-2-methylazetidin-1-yl]-5-methylpyrimidin-4-yl}-3-azabicyclo[3.1.0]hex-6-yl]acetic acid], the IC50 turned out to be 33.4 nM.

On to `C[C@@H]1N(c2nc(N3C[C@@H]4[C@@H](CC(=O)O)[C@@H]4C3)c(Cl)c(C(F)F)c2C#N)C[C@@]1(C)O` [Example 21, [(1R,5S,6R)-3-{3-chloro-5-cyano-4-(difluoromethyl)-6-[(2S,3R)-3-hydroxy-2,3-dimethylazetidin-1-yl]pyridin-2-yl}-3-azabicyclo[3.1.0]hex-6-yl]acetic acid], for which the IC50 is 8.7 nM. On to `C[C@@H]1N(c2nc(N3C[C@@H]4[C@@H](CC(=O)O)[C@@H]4C3)cc(C(F)(F)F)n2)C[C@@]1(C)O` [Example 22, [(1R,5S,6R)-3-{2-[(2S,3R)-3-hydroxy-2,3-dimethylazetidin-1-yl]-6-(trifluoromethyl)pyrimidin-4-yl}-3-azabicyclo[3.1.0]hex-6-yl]acetic acid], for which the IC50 amounted to 703 nM.

Regarding `C[C@H]1C[C@H](O)CN1c1nc(N2C[C@@H]3[C@@H](CC(=O)O)[C@@H]3C2)cc(C(F)(F)F)c1C#N` [Example 23, [(1R,5S,6R)-3-{5-cyano-6-[(2S,4S)-4-hydroxy-2-methylpyrrolidin-1-yl]-4-(trifluoromethyl)pyridin-2-yl}-3-azabicyclo[3.1.0]hex-6-yl]acetic acid], the IC50 amounted to 11.6 nM.

The record behind these values is US10174007B2, “Substituted 3-azabicyclo[3.1.0]hexanes as ketohexokinase inhibitors” (Pfizer Inc., priority 2015, dated 2019).
